Measurements taken from patent publication US12540120B2, “Herbicidal compounds” (SYNGENTA CROP PROTECTION AG, priority 2019, dated 2026).

Tests used:
Type in all cases: in vivo
Solanum nigrum (SOLNI) [1] = assay: B5 Pre-Emergence Efficacy—Test 2; conditions: 250 g/ha, evaluated after 13 days
Experimental: (§1) B5 Pre-Emergence Efficacy—Test 2 Seeds of a variety of test species were sown in standard soil in pots: Solanum nigrum (SOLNI), Amaranthus retoflexus (AMARE), Setaria faberi (SETFA), Echinochloa crus-galli (ECHCG), Ipomoea hederacea (IPOHE), Lolium perenne (LOLPE). After cultivation for one day (pre-emergence) under controlled conditions in a glasshouse (at 24/16° C., day/night; 14 hours light; 65% humidity), the plants were sprayed with an aqueous spray solution derived from the formulation of the technical active ingredient in acetone/water (50:50) solution containing 0.5% Tween 20 (polyoxyethelyene sorbitan monolaurate, CAS RN 9005-64-5). Compounds are applied at 250 g/ha. The test plants were then grown in a glasshouse under controlled conditions (at 24/16° C., day/night; 14 hours light; 65% humidity) and watered twice daily. After 13 days, the test is evaluated for the percentage damage caused to the plant. The biological activities are assessed on a five point scale (5=80-100%; 4=60-79%; 3=40-59%; 2=20-39%; 1=0-19%). A blank value in the table is indicative that the compound was not tested on that species.

[2] = tested on: Amaranthus retoflexus (AMARE); assay: B5 Pre-Emergence Efficacy—Test 2; conditions: 250 g/ha, evaluated after 13 days
Experimental: as §1

Setaria faberi (SETFA) [3] = assay: B2 Post-Emergence Efficacy—Test 2; conditions: post-emergence application, 250 g/ha, evaluated after 13 days (Test 2)
Experimental: (§2) B2 Post-Emergence Efficacy—Test 2 Seeds of a variety of test species are sown in standard soil in pots:—Solanum nigrum (SOLNI), Amaranthus retoflexus (AMARE), Setaria faberi (SETFA), Echinochloa crus-galli (ECHCG), Ipomoea hederacea (IPOHE), Lolium perenne (LOLPE). After 8 days cultivation (post-emergence) under controlled conditions in a glasshouse (at 24/16° C., day/night; 14 hours light; 65% humidity), the plants are sprayed with an aqueous spray solution derived from the formulation of the technical active ingredient in acetone/water (50:50) solution containing 0.5% Tween 20 (polyoxyethylene sorbitan monolaurate, CAS RN 9005-64-5). Compounds are applied at 250 g/ha. The test plants are then grown in a glasshouse under controlled conditions in a glasshouse (at 24/16° C., day/night; 14 hours light; 65% humidity) and watered twice daily. After 13 days, the test is evaluated for the percentage damage caused to the plant. The biological activities are assessed on a five point scale (5=80-100%; 4=60-79%; 3=40-59%; 2=20-39%; 1=0-19%). A blank value in the table is indicative that the compound was not tested on that species.

[4] = tested on: Ipomoea hederacea (IPOHE); assay: B2 Post-Emergence Efficacy—Test 2; conditions: post-emergence application, 250 g/ha, evaluated after 13 days (Test 2)
Experimental: as §2

Solanum nigrum (SOLNI) [5] = assay: B2 Post-Emergence Efficacy—Test 2; conditions: post-emergence application, 250 g/ha, evaluated after 13 days (Test 2)
Experimental: as §2

[6] = tested on: Amaranthus retoflexus (AMARE); assay: B2 Post-Emergence Efficacy—Test 2; conditions: post-emergence application, 250 g/ha, evaluated after 13 days (Test 2)
Experimental: as §2

[7] = tested on: Echinochloa crus-galli (ECHCG); assay: B2 Post-Emergence Efficacy—Test 2; conditions: post-emergence application, 250 g/ha, evaluated after 13 days (Test 2)
Experimental: as §2

Lolium perenne (LOLPE) [8] = assay: B2 Post-Emergence Efficacy—Test 2; conditions: post-emergence application, 250 g/ha, evaluated after 13 days (Test 2)
Experimental: as §2

Setaria faberi (SETFA) [9] = assay: B5 Pre-Emergence Efficacy—Test 2; set-up: key: 5-point scale: 5=80-100%, 4=60-79%, 3=40-59%, 2=20-39%, 1=0-19% damage; conditions: 250 g/ha, evaluated after 13 days
Experimental: as §1

[10] = tested on: Ipomoea hederacea (IPOHE); assay: B5 Pre-Emergence Efficacy—Test 2; set-up: key: 5-point scale: 5=80-100%, 4=60-79%, 3=40-59%, 2=20-39%, 1=0-19% damage; conditions: 250 g/ha, evaluated after 13 days
Experimental: as §1

[11] = tested on: Echinochloa crus-galli (ECHCG); assay: B5 Pre-Emergence Efficacy—Test 2; set-up: key: 5-point scale: 5=80-100%, 4=60-79%, 3=40-59%, 2=20-39%, 1=0-19% damage; conditions: 250 g/ha, evaluated after 13 days
Experimental: as §1

Lolium perenne (LOLPE) [12] = assay: B5 Pre-Emergence Efficacy—Test 2; set-up: key: 5-point scale: 5=80-100%, 4=60-79%, 3=40-59%, 2=20-39%, 1=0-19% damage; conditions: 250 g/ha, evaluated after 13 days
Experimental: as §1

SMILES | Control of weed species after pre-emergence application, SOLNI (percentage damage, five point scale) (Solanum nigrum (SOLNI) [1]) | Control of weed species after pre-emergence application, AMARE (percentage damage, five point scale) [2] | percentage damage caused to the plant, five point scale, SETFA (Setaria faberi (SETFA) [3]) | percentage damage caused to the plant, five point scale, IPOHE [4] | percentage damage caused to the plant, five point scale, SOLNI (Solanum nigrum (SOLNI) [5]) | percentage damage caused to the plant, five point scale, AMARE [6] | percentage damage caused to the plant, five point scale, ECHCG [7] | percentage damage caused to the plant, five point scale, LOLPE (Lolium perenne (LOLPE) [8]) | Control of weed species after pre-emergence application, SETFA (percentage damage, five point scale) (Setaria faberi (SETFA) [9]) | Control of weed species after pre-emergence application, IPOHE (percentage damage, five point scale) [10] | Control of weed species after pre-emergence application, ECHCG (percentage damage, five point scale) [11] | Control of weed species after pre-emergence application, LOLPE (percentage damage, five point scale) (Lolium perenne (LOLPE) [12])
Cc1nn(C)c(=O)c(-c2c(F)ccc(Cl)c2/C=C/c2ccc(OC(C)(C)C)cc2)c1OC(=O)C(C)C [Compound A-4.035] | 0 | 0 | 0 | 3 (3=40-59%) | 3 (3=40-59%) | 1 (1=0-19%) | 0 | 0 | 0 | 1 (1=0-19%) | 1 (1=0-19%) | 1 (1=0-19%)
Cc1nn(C)c(=O)c(-c2c(F)ccc(Cl)c2CCc2ccc(C(=O)O)cc2)c1O [Compound A-1.040] | 0 | 0 | 0 | 0 | 3 (3=40-59%) | 3 (3=40-59%) | 0 | 0 | 0 | 0 | 0 | 0
Cc1nn(C)c(=O)c(-c2c(F)ccc(Cl)c2CCc2ccc(OC(C)(C)C)cc2)c1OC(=O)C(C)C [Compound A-3.035] | 5 (5=80-100%) | 4 (4=60-79%) | 5 (5=80-100%) | 5 (5=80-100%) | 5 (5=80-100%) | 5 (5=80-100%) | 4 (4=60-79%) | 5 (5=80-100%) | 5 (5=80-100%) | 5 (5=80-100%) | 4 (4=60-79%) | 5 (5=80-100%)
Cc1nn(C)c(=O)c(-c2c(F)ccc(Cl)c2CCc2ccc(C3CC3)cc2)c1O [Compound A-1.038] | 5 (5=80-100%) | 5 (5=80-100%) | 5 (5=80-100%) | 5 (5=80-100%) | 5 (5=80-100%) | 5 (5=80-100%) | 5 (5=80-100%) | 5 (5=80-100%) | 0 | 2 (2=20-39%) | 5 (5=80-100%) | 5 (5=80-100%)
Cc1nn(C)c(=O)c(-c2c(F)ccc(Cl)c2/C=C/c2ccc(C#N)cc2)c1OC(=O)C(C)C [Compound A-4.036, [5-[3-Chloro-2-[(E)-2-(4-cyanophenyl)vinyl]-6-fluoro-phenyl]-1,3-dimethyl-6-oxo-pyridazin-4-yl] 2-methylpropanoate] | 5 (5=80-100%) | 2 (2=20-39%) | 1 (1=0-19%) | 4 (4=60-79%) | 5 (5=80-100%) | 2 (2=20-39%) | 3 (3=40-59%) | 3 (3=40-59%) | 0 | 3 (3=40-59%) | 1 (1=0-19%) | 1 (1=0-19%)
Cc1nn(C)c(=O)c(-c2c(F)ccc(Cl)c2CCc2ccc(C3CC3)cc2)c1OC(=O)C(C)C [Compound A-3.038] | 5 (5=80-100%) | 5 (5=80-100%) | 5 (5=80-100%) | 5 (5=80-100%) | 5 (5=80-100%) | 5 (5=80-100%) | 2 (2=20-39%) | 5 (5=80-100%) | 1 (1=0-19%) | 5 (5=80-100%) | 2 (2=20-39%) | 5 (5=80-100%)
Cc1nn(C)c(=O)c(-c2c(F)ccc(Cl)c2CCc2ccc(NC(=O)OC(C)(C)C)c(F)c2)c1O [Compound A-1.042] | 5 (5=80-100%) | 5 (5=80-100%) | 5 (5=80-100%) | 3 (3=40-59%) | 5 (5=80-100%) | 5 (5=80-100%) | 5 (5=80-100%) | 5 (5=80-100%) | 5 (5=80-100%) | 2 (2=20-39%) | 2 (2=20-39%) | 1 (1=0-19%)
Cc1nn(C)c(=O)c(-c2c(F)ccc(Cl)c2/C=C/c2cccc(C#N)c2)c1OC(=O)C(C)C [Compound A-4.030] | 4 (4=60-79%) | 3 (3=40-59%) | 0 | 3 (3=40-59%) | 3 (3=40-59%) | 2 (2=20-39%) | 1 (1=0-19%) | 1 (1=0-19%) | 1 (1=0-19%) | 1 (1=0-19%) | 1 (1=0-19%) | 2 (2=20-39%)
